Measured values: publication PMC10269678, “Identification of Fungus-Derived Natural Products as New Antigiardial Scaffolds” (Microbiology Spectrum, 2023)
Where two headings read alike, the source gives them in different places.

Assays:
G. lamblia strain CBG99 [1] = assay: G. lamblia CBG99 luciferase reporter trophozoite growth assay; assay type: cell-based, Giardia lamblia; conditions: for inhibition at 10 µM: read-out: % inhibition at 10 μM; for times more potent than metronidazole: relative to metronidazole EC50 of 5 μM; for % inhibition at 10 μM: pNP tested at 10 μM, G. lamblia growth, primary screen
Description: For in vitro Giardia assays, we used a click beetle green (CBG99) luciferase-based reporter system that was developed for quantitative bioluminescence readouts of growth in trophozoites ([13][–][15]). The CBG99 reporter gene is under the control of the glutamate dehydrogenase promoter, which is highly expressed in the G. lamblia trophozoite stage, making it useful for monitoring growth even in mouse infection models ([15]). The compound library was obtained from the Natural Products Discovery Group (NPDG) at the University of Oklahoma ([16]). A combination of 755 purified natural products (pNPs) and 1,056 fungal extracts were screened against G. lamblia strain CBG99. Hits were defined as samples that caused ≥50% growth inhibition activity at 10 μM (pNPs) or 5 μg/mL (extracts). […] Only 2 were considered false positives (EC50 > 10 μM) (Table 2).

G. lamblia strain CBG99 [2] = system: G. lamblia strain CBG99; parameters: method as in PMID 26324270; conditions: cited from earlier work
[3] = Giardia duodenalis, read-out: EC50 ± SD (μM)
[4] = Giardia duodenalis, read-out: EC50 against G. lamblia trophozoite
[5] = G. lamblia trophozoite growth in vitro, Table 2, read-out: EC50 ± SD

## COC1=CC(=O)CC(C)C12Oc1cc(OC)cc(OC)c1C2=O (centres unmarked) [J16A, Dechlorogriseofulvin]
G. lamblia strain CBG99 [1]; Giardia duodenalis, read-out: Giardia EC50 (μM)
  EC50: > 15 µM

## CC(C)C1NC(=O)C(CC2(O)c3ccccc3N3C(=O)C(C)(C)NC32)n2c1nc1ccccc1c2=O (stereo not drawn) [J16E, epi-Fiscalin C]
G. lamblia strain CBG99 [1]; Giardia duodenalis
  EC50: 0.555 µM

## COC1=CC(=O)C[C@@H](C)[C@]12Oc1c(Cl)c(OC)cc(OC)c1C2=O [J16K, Griseofulvin]
G. lamblia strain CBG99 [1]; Giardia duodenalis
  EC50: 7.88 µM

## CC1(C)C(=O)N2c3ccccc3C3(CC(n4cnc5ccccc5c4=O)C(=O)O3)C2N1O (centres unmarked) [J16L, Tryptoquivaline L]
G. lamblia strain CBG99 [1]; Giardia duodenalis
  EC50: 7.15 µM

## CC(C)=C1NC(=O)C(CC2(O)c3ccccc3N3C(=O)C(C)(C)NC32)n2c1nc1ccccc1c2=O (centres unmarked) [J16M, Quinadoline A]
G. lamblia strain CBG99 [1]; Giardia duodenalis
  EC50: 3.29 µM

## COC12OC1(C13OC1(OC)C(=O)c1cc4cc(C)oc(=O)c4c(O)c1C3O)C(O)c1c(cc3cc(C)oc(=O)c3c1O)C2=O (centres unmarked) [J16R, Xanthoepocin]
G. lamblia strain CBG99 [1]; Giardia duodenalis
  EC50: 0.146 µM

## CC(C)C(=O)c1nc2ccccc2c(=O)n1C1CC2(OC1=O)c1ccccc1N1C(=O)C(C)(C)NC12 (centres unmarked) [J36B]
G. lamblia strain CBG99 [1]; Giardia duodenalis
  EC50: 0.044 µM

## CC(=O)ON1C2N(C(=O)C1(C)C)c1ccccc1C21CC(n2c(C(O)C(C)C)nc3ccccc3c2=O)C(=O)O1 (centres unmarked) [J36C, isotryptoquivaline]
G. lamblia strain CBG99 [1]; Giardia duodenalis
  EC50: 0.84 µM

## N[C@H](C(=O)O)[C@@H]1CC(Cl)=NO1 [NPDG 120071, Acivicin]
G. lamblia strain CBG99 [1]; Giardia duodenalis
  inhibition at 10 µM: 85%
G. lamblia strain CBG99 [1]; [3]
  EC50: > 10 µM

## COC(=O)C1=C[C@@H](O)[C@@H](O)[C@@H](O)[C@H]1N1C[C@H](O)[C@@H](OC(C)=O)[C@H]1Cc1ccc(OC)cc1 [NPDG 150029, Anisomycin 1-N-pericosine]
G. lamblia strain CBG99 [1]; Giardia duodenalis
  inhibition at 10 µM: 86%
G. lamblia strain CBG99 [1]; [3]
  EC50: 3.32 ± 0.01 µM

## CO[C@@H]1[C@H](OC(=O)\C=C/C=C/C=C/C=C/C(=O)O)CC[C@]2(CO2)[C@H]1[C@@]1(C)O[C@@H]1CC=C(C)C [NPDG 150049, cis-Fumagillin]
G. lamblia strain CBG99 [1]; Giardia duodenalis
  inhibition at 10 µM: 85%
G. lamblia strain CBG99 [1]; [4]
  EC50: < 0.2 µM
G. lamblia strain CBG99 [1]; [3]
  EC50: 0.03 ± 0.02 µM
G. lamblia strain CBG99 [1]
  times more potent than metronidazole: > 25 times

## COC(=O)c1c(Sc2c(O)cc3oc4cc(C)cc(O)c4c(=O)c3c2C(=O)OC)c(O)cc(OC)c1C(=O)c1c(O)cc(C)cc1O [NPDG 150051, Dioschrin]
G. lamblia strain CBG99 [1]; [5]
  EC50: 3.21 ± 0.61 µM
G. lamblia strain CBG99 [1]
  % inhibition at 10 μM: 82%

## CC(=O)OC(C)(C)[C@H]1O[C@H]2CC[C@@]3(C)[C@@](O)(CC[C@H]4Cc5c([nH]c6ccccc56)[C@@]43C)C2=CC1=O [NPDG 150113, 1′-O-acetylpaxilline]
G. lamblia strain CBG99 [1]; [5]
  EC50: 3.4 µM
G. lamblia strain CBG99 [1]
  % inhibition at 10 μM: 82%

## C/C=C/C=C/C=C/C(=O)O[C@@H]1C=C2COC(=O)[C@]2(O)[C@@]2(C)CCCC(C)(C)[C@H]12 [NPDG 150125, RES-1149-2]
G. lamblia strain CBG99 [1]; Giardia duodenalis
  inhibition at 10 µM: 88%
G. lamblia strain CBG99 [1]; [4]
  EC50: < 0.2 µM
G. lamblia strain CBG99 [1]; [3]
  EC50: 0.18 ± 0.11 µM
G. lamblia strain CBG99 [1]
  times more potent than metronidazole: > 25 times

## C/C=C(\C)c1cc(OC)c(C)c2c1Oc1c(CO)c(O)cc(/C(C)=C/C(=O)O)c1C(=O)O2 [NPDG 150134, Auranticin A]
G. lamblia strain CBG99 [1]; Giardia duodenalis
  inhibition at 10 µM: 89%
G. lamblia strain CBG99 [1]; [3]
  EC50: 4.44 ± 3.02 µM

## COC1C(OC(=O)C=CC=CC=CC=CC(=O)O)CCC(O)(CCl)C1C1(C)OC1CC=C(C)C (centres unmarked) [NPDG 150137]
G. lamblia strain CBG99 [1]; Giardia duodenalis
  inhibition at 10 µM: 90%
G. lamblia strain CBG99 [1]; [4]
  EC50: < 0.2 µM
G. lamblia strain CBG99 [1]; [3]
  EC50: 0.006 µM
G. lamblia strain CBG99 [1]
  times more potent than metronidazole: > 25 times

## C=C1CC[C@@H](OC(=O)/C=C/C=C/C=C/C=C/C(=O)O)[C@@H](OC)[C@H]1[C@@]1(C)O[C@@H]1CC=C(C)C [NPDG 150138, Sch 528647]
G. lamblia strain CBG99 [1]; [5]
  EC50: 3.09 ± 0.16 µM
G. lamblia strain CBG99 [1]
  % inhibition at 10 μM: 88%

## COC1=CC(=O)c2c(O)c(C)c(CC(C)=O)c(O)c2C1=O [NPDG 160012, Javanicin]
G. lamblia strain CBG99 [1]; Giardia duodenalis
  inhibition at 10 µM: 89%
G. lamblia strain CBG99 [1]; [3]
  EC50: 1.26 ± 1.01 µM

## CC(=O)C1=C(O)[C@@H]2[C@H]3c4c[nH]c5cccc(c45)C[C@H]3C(C)(C)N2C1=O [NPDG 170027, Cyclopiazonic acid]
G. lamblia strain CBG99 [1]; Giardia duodenalis
  inhibition at 10 µM: 81%
G. lamblia strain CBG99 [1]; [3]
  EC50: 1.3 ± 0.71 µM

## CC(=O)O[C@H]1C[C@@]2(C)[C@@H](CC[C@H]3[C@@]4(C)C=CC(=O)[C@@H](C)[C@@H]4[C@H](OC(C)=O)C(=O)[C@@]32C)/C1=C(\CCC=C(C)C)C(=O)O [NPDG 170028, Helvolic acid]
G. lamblia strain CBG99 [1]; Giardia duodenalis
  inhibition at 10 µM: 83%
G. lamblia strain CBG99 [1]; [3]
  EC50: 3.36 ± 0.14 µM

## CO[C@@H]1[C@H](OC(=O)/C=C/C=C/C=C/C=C/C(=O)O)CC[C@]2(CO2)[C@H]1[C@@]1(C)O[C@@H]1CC=C(C)C [NPDG 170035, Fumagillin]
G. lamblia strain CBG99 [1]; Giardia duodenalis
  inhibition at 10 µM: 88%
G. lamblia strain CBG99 [1]; [4]
  EC50: < 0.2 µM
G. lamblia strain CBG99 [1]; [3]
  EC50: 0.004 µM
G. lamblia strain CBG99 [1]
  times more potent than metronidazole: > 25 times

## C[C@@H]1N[C@H]2N(C1=O)c1ccccc1[C@@]21C[C@@H]2C(=O)N[C@@](C)(O1)c1nc3ccccc3c(=O)n12 [NPDG 170098, Fumiquinazoline C]
G. lamblia strain CBG99 [1]; [5]
  EC50: 6.92 ± 8.5 µM
G. lamblia strain CBG99 [1]
  % inhibition at 10 μM: 82%

## Cc1ncc([N+](=O)[O-])n1CCO [metronidazole]
G. lamblia strain CBG99 [2]
  EC50: 5 µM

## Perfraglin A [NPDG 120038]
G. lamblia strain CBG99 [1]; [5]
  EC50: > 10 µM
G. lamblia strain CBG99 [1]
  % inhibition at 10 μM: 75%
